Measurements as given in PubChem BioAssay AID1648 (Sanford-Burnham Center for Chemical Genomics, 2009).
Calls of active or inactive are those of the source. No rule for the calls is given here.

Target: Serine/threonine-protein kinase mTOR (Homo sapiens) (UniProt P42345)
Assay: binders of mTOR FRB domain, biophysical, NMR (AID 1648)
Settings: NMR binding to FRB domain, chemical shift

Sequence of Serine/threonine-protein kinase mTOR (Homo sapiens) (P42345 2015-2114): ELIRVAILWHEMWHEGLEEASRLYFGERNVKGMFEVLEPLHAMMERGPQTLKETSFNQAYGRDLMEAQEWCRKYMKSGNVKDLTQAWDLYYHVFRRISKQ

SMILES | Kd
OCc1ccc(-n2ccnc2)cc1 | > 4 mM (inactive)
Nc1ncnc2c1ncn2CCN1CCCCC1 | > 4 mM (inactive)
Cc1cc(N)no1 | > 4 mM (inactive)
O=C(Nc1nc2c(s1)CCCC2)c1cccnc1 | > 4 mM (inactive)
CC(C)CC(=O)Nc1c[nH]c(=O)[nH]c1=O | > 4 mM (inactive)
N#Cc1cnn2c(C(F)(F)F)cc(C(F)(F)F)nc12 | > 4 mM (inactive)
Cc1noc(C)c1C(=O)Nc1ccc2c(c1)CCC2 | > 4 mM (inactive)
O=C1CC2OCC=C3CN4CC[C@]56c7ccccc7N1C5[C@H]2[C@H]3CC46 (stereo not given in full) | > 4 mM (inactive)
CC(=O)Nc1c(Cl)cnn(-c2ccccc2)c1=O | > 4 mM (inactive)
COc1nc(C)ccc1-c1noc(-c2ccco2)n1 | > 4 mM (inactive)
O=C(NC1=NCCS1)c1cccc(F)c1 | > 4 mM (inactive)
CNC(=O)C(=O)Nc1ccc(F)cc1 | > 4 mM (inactive)
Cc1nn(-c2ccccc2)nc1C(N)=O | > 4 mM (inactive)
CS(=O)(=O)N1CCC(C(=O)NC2CCCC2)CC1 | > 4 mM (inactive)
CC(=O)O[C@H]1C[C@@H](OC(C)=O)C(C)(C)C2C[C@@H](OC(C)=O)[C@@]3(C)C4=CC(=O)O[C@@H](c5ccoc5)[C@]4(C)CCC3[C@]21C (stereo not given in full) | > 4 mM (inactive)
OCc1ccc2c(c1)OCCCO2 | > 4 mM (inactive)
CC1CC[C@]2(NC1)O[C@H]1CC3C4CC[C@H]5C[C@@H](O)CC[C@]5(C)C4CC[C@]3(C)[C@H]1[C@@H]2C (stereo not given in full) | > 4 mM (inactive)
CSc1cccc(NC(=O)c2c(Cl)cnn2C)c1 | > 4 mM (inactive)
CC1(C)C(=O)C=C[C@@]2(C)C1C=C[C@]1(C)C2CC[C@@]2(C)[C@H](c3ccoc3)OC(=O)C3OC321 (stereo not given in full) | > 4 mM (inactive)
CNC(=S)NCCN1CCOCC1 | > 4 mM (inactive)
CC(=O)c1cccc(NS(=O)(=O)N2CCCCC2)c1 | > 4 mM (inactive)
O=C1NC(=O)C(c2ccccc2)C(=O)N1 | > 4 mM (inactive)
CC(=O)c1c(C)nc(-c2cccs2)n1O | > 4 mM (inactive)
N#Cc1nc(N2CCCCC2)nc(N2CCOCC2)n1 | > 4 mM (inactive)
NCC1COc2ccccc2O1 (stereo not given) | > 4 mM (inactive)
O=c1c(-c2cc(O)c(O)c(O)c2)coc2cc(O)c(O)c(O)c12 | > 4 mM (inactive)
COc1cc(OC)c2c(=O)c(-c3ccccc3)coc2c1 | > 4 mM (inactive)
Nc1ccccc1OC(F)(F)F | > 4 mM (inactive)

SMILES | Kd
O=C(O)C1COc2ccccc2O1 (stereo not given) | > 4 mM (inactive)
O=C(Nc1ccc(N2CCOCC2)cc1)C1CC1 | > 4 mM (inactive)
COc1ccc(-c2ccc(OC)cc2C(=O)O)cc1 | > 4 mM (inactive)
COc1ccc2c3c([nH]c2c1)C(C)=NCC3 | > 4 mM (inactive)
C=C[C@@](C)(O)CCC1C(=C)C[C@H](OC(C)=O)C2C(C)(C)CCCC12C (stereo not given in full) | > 4 mM (inactive)
NC(=O)C(=O)NCc1ccc(Cl)cc1 | > 4 mM (inactive)
Nc1ccc(Cl)nn1 | > 4 mM (inactive)
CC(=O)OC/C=C(\C)CC/C=C(\C)CC/C=C(\C)CC/C=C(\C)CC/C=C(\C)CC/C=C(\C)CC/C=C(\C)CC/C=C(\C)CCC=C(C)C | > 4 mM (inactive)
Cn1cc(Cl)c(C(=O)Nc2ccncc2)n1 | > 4 mM (inactive)
OCc1snnc1-c1ccccc1 | > 4 mM (inactive)
CNc1nc(C)nc(-n2nc(C)cc2C)n1 | > 4 mM (inactive)
CN(c1ccccc1C(=O)N1CCOCC1)S(C)(=O)=O | > 4 mM (inactive)
Cc1cc(C(=O)NCc2cccs2)c(C)o1 | > 4 mM (inactive)
Cn1c(SCC(N)=O)nnc1-c1c[nH]c2ccccc12 | > 4 mM (inactive)
COc1cc(OC)c2ccc(=O)oc2c1 | > 4 mM (inactive)
C=C1C[C@]23C[C@@]1(O)CC[C@H]2[C@@]12C=C[C@H](O)C(C)(C(=O)O1)[C@H]2[C@@H]3C(=O)O | > 4 mM (inactive)
N#Cc1cn(CC(=O)N2CCCC2)c2ccccc12 | > 4 mM (inactive)
CCOC(=O)c1nc2ccccc2c(=O)n1N | > 4 mM (inactive)
COC(=O)/C(C)=C\CC12OC(C)(C)C3CC(C=C4C(=O)c5c(OC)c6c(c(CC=C(C)C)c5OC431)OC(C)(CCC=C(C)C)C=C6)C2=O (stereo not given) | > 4 mM (inactive)
CSc1ccc(S(=O)(=O)N2CCCC2)cc1 | > 4 mM (inactive)
CCCCN1C(=O)C2CC/C(=N/O)CC2C1=O (stereo not given) | > 4 mM (inactive)
c1cnc(N2CCNCC2)nc1 | > 4 mM (inactive)
CC(C)c1ccc2c(c1)CCC1[C@](C)(CN)CCC[C@]21C (stereo not given in full) | > 4 mM (inactive)
C[C@@H]1CC[C@@]23CCC4(C)[C@@](C=CC5[C@@]6(C)CC[C@H](O)C(C)(C)C6CC[C@]54C)(OC2=O)C3[C@H]1C (stereo not given in full) | > 4 mM (inactive)
CC(O)(C(=O)O)c1ccccc1 (stereo not given) | > 4 mM (inactive)
O=C(Nc1ccccc1N1CCCC1)c1cccnc1 | > 4 mM (inactive)
C=C1C([C@]2(C)C(CC(=O)OC)[C@@](C)(COC(C)=O)OC(=O)C[C@@H]2OC(C)=O)[C@@H](OC=O)[C@H](OC(=O)C(OC(C)=O)C(C)CC)[C@@]2(C)[C@H](c3ccoc3)CC(=O)C12O (stereo not given in full) | > 4 mM (inactive)
